Results published in paper PMC10579241, “Impact of trifluoromethyl and sulfonyl groups on the biological activity of novel aryl-urea derivatives: synthesis, in-vitro, in-silico and SAR studies” (Scientific Reports, 2023).
≈ marks a conversion by molar mass, not a printed value. Where two headings read alike, the source gives them in different places. Marks after values point to notes of the source that are not given here.

Assays:
[1] = test system: Escherichia coli; assay: MIC by serial dilution (agar wells), E. coli; type: cell-based
[2] = test system: A549; assay: DNA fragmentation assay, A549; type: cell-based, human
[3] = in vitro; type: cell-based; details: human, BJ1 normal skin fibroblast cells, 100 μg/mL
[4] = test system: human lung carcinoma (A549); assay: cells; type: cell-based
[5] = test system: osteosarcoma cell line (HOS); assay: cells; type: cell-based; details: Homo sapiens, 48 h, 100 μg/mL
[6] = test system: EGFR; assay: qRT-PCR, EGFR in A549 cells; type: cell-based, human; details: versus negative samples
[7] = test system: colon cancer (HCT116); assay: cells; type: cell-based; details: Homo sapiens
[8] = test system: Bacillus mycoides; assay: microbe, parasite or virus in culture; type: cell-based
[9] = test system: A549; assay: DNA damage, comet assay, A549; type: cell-based, human
[10] = test system: pancreatic cancer cell line (PACA2); assay: cells; type: cell-based; details: Homo sapiens, PaCa-2, 48 h
[11] = test system: Candida albicans; assay: MIC by serial dilution (agar wells), C. albicans; type: cell-based
[12] = test system: Bacillus mycoides; assay: microbe, parasite or virus in culture; type: cell-based; remark: listed apart in the source
[13] = test system: KRAS; assay: qRT-PCR, KRAS in A549 cells; type: cell-based, human; details: versus negative samples
[14] = test system: prostate cancer (PC3); assay: cells; type: cell-based; details: Homo sapiens, 48 h
[15] = test system: Candida albicans; assay: Agar well diffusion, C. albicans; type: cell-based
[16] = test system: hepatocellular carcinoma cell line (HePG2); assay: cells; type: cell-based; details: Homo sapiens, 48 h
[17] = test system: skin cancer (A431); assay: cells; type: cell-based; details: Homo sapiens, A-431, 100 μg/mL, 48 h
[18] = test system: Escherichia coli; assay: Agar well diffusion, E. coli; type: cell-based; details: Escherichia coli, read-out: Inhibition zones diameter
[19] = 0.00488 mg/mL, 150 µL in DMSO, 15 mm agar well
[20] = 0.00975 mg/mL, 150 µL in DMSO, 15 mm agar well
[21] = 0.0195 mg/mL, 150 µL in DMSO, 15 mm agar well
[22] = 0.0391 mg/mL, 150 µL in DMSO, 15 mm agar well
[23] = 0.0781 mg/mL, 150 µL in DMSO, 15 mm agar well
[24] = 0.1563 mg/mL, 150 µL in DMSO, 15 mm agar well
[25] = 0.3125 mg/mL, 150 µL in DMSO, 15 mm agar well
[26] = 0.625 mg/mL, 150 µL in DMSO, 15 mm agar well
[27] = 1.25 mg/mL, 150 µL in DMSO, 15 mm agar well
[28] = 2.50 mg/mL, 150 µL in DMSO, 15 mm agar well
[29] = 5.00 mg/mL, 150 µL in DMSO, 15 mm agar well
[30] = 10.0 mg/mL, 150 µL in DMSO, 15 mm agar well
[31] = read-out: Minimum inhibition concentration (MIC)

Compound Cc1ccc(S(=O)(=O)NC(=O)Nc2ccc(OC(F)(F)F)cc2)cc1 [Compound 8, 4-Methyl-N-[(4-{trifluoromethoxy}phenyl)carbamoyl]benzenesulfonamide] has a zone of inhibition at 4.88 µg/mL [1, 19] of 16 mm, a zone of inhibition at 9.75 µg/mL [1, 20] of 17 mm and a zone of inhibition at 19.5 µg/mL [1, 21] of 17 mm. The zone of inhibition at 39.1 µg/mL [1, 22] was 18 mm, the zone of inhibition at 78.1 µg/mL [1, 23] was 18 mm and the zone of inhibition at 156.3 µg/mL [1, 24] was 19 mm. For the same compound, the zone of inhibition at 312.5 µg/mL [1, 25] was 23 mm, the zone of inhibition at 625 µg/mL [1, 26] was 25 mm and the zone of inhibition at 1250 µg/mL [1, 27] was 27 mm. It also gave a zone of inhibition at 2500 µg/mL [1, 28] of 28 mm, a zone of inhibition at 5000 µg/mL [1, 29] of 29 mm and a zone of inhibition at 10000 µg/mL [1, 30] of 32 mm. For the same compound, the MIC [1, 31] was 4.88 µg/mL (≈ 13 µM), the “Change (DNA fragmentation versus untreated cells)” value [2] was 22.8 and the “DNA fragmentation % M ± SEM” value ([2]; IC50 concentration, 24 h) was 34.2 ± 0.57^a %. The Inhibition ([2]; doxorubicin = 0.0) was 16.92, the mortality at 48 h, 100 µg/mL [3] was 6.2 ± 1.54% and the mortality at 100 µg/mL ([4]; A549, 48 h, 100 μg/mL) was 100%. For the same compound, the IC50 ([4]; MTT, 48 h) was 55.8 ± 0.11 µM, the mortality at 100 µg/mL [5] was > 50% and the “EGFR gene expression level” value [6] was “significant reduction”. It also gave a mortality at 100 µg/mL ([7]; HCT-116, 48 h, 100 μg/mL) of 100%, an IC50 ([7]; HCT-116, MTT, 48 h) of 47.3 ± 0.91 µM and a zone of inhibition at 4.88 µg/mL ([8]; read-out: Inhibition zone) of 17 mm. The zone of inhibition at 9.75 µg/mL ([8]; read-out: Inhibition zone) was 17 mm, the zone of inhibition at 19.5 µg/mL ([8]; read-out: Inhibition zone) was 17 mm and the zone of inhibition at 39.1 µg/mL ([8]; read-out: Inhibition zone) was 17 mm. It also gave a zone of inhibition at 78.1 µg/mL ([8]; read-out: Inhibition zone) of 17 mm, a zone of inhibition at 156.3 µg/mL ([8]; read-out: Inhibition zone) of 17 mm and a zone of inhibition at 312.5 µg/mL ([8]; read-out: Inhibition zone) of 20 mm. It also gave a zone of inhibition at 625 µg/mL ([8]; read-out: Inhibition zone) of 23 mm, a zone of inhibition at 1250 µg/mL ([8]; read-out: Inhibition zone) of 26 mm and a zone of inhibition at 2500 µg/mL ([8]; read-out: Inhibition zone) of 27 mm. It also gave a zone of inhibition at 5000 µg/mL ([8]; read-out: Inhibition zone) of 27 mm, a zone of inhibition at 10000 µg/mL ([8]; read-out: Inhibition zone) of 32 mm and an MIC [8, 31] of 4.88 µg/mL (≈ 13 µM). For the same compound, the “DNA damaged cells % (mean ± SEM)” value [9] was 24.75 ± 1.03^a %, the “Class 0 (no tail), number of cells” value ([9]; of 400 cells analyzed) was 301 and the “Class 1 (tail length < diameter of nucleus), number of cells” value ([9]; of 400 cells analyzed) was 39. For the same compound, the “Class 2 (tail length between 1 and 2 × the diameter of nucleus), number of cells” value ([9]; of 400 cells analyzed) was 38, the “Class 3 (tail length > 2 × the diameter of nucleus), number of cells” value ([9]; of 400 cells analyzed) was 22 and the “No. of cells, Comets” value ([9]; of 400 cells analyzed) was 99. The mortality at 100 µg/mL ([10]; 100 μg/mL) was 100%, the IC50 ([10]; MTT) was 22.4 ± 0.49 µM and the zone of inhibition at 4.88 µg/mL [11, 19] was 16 mm. The zone of inhibition at 9.75 µg/mL [11, 20] was 17 mm, the zone of inhibition at 19.5 µg/mL [11, 21] was 17 mm and the zone of inhibition at 39.1 µg/mL [11, 22] was 17 mm. The zone of inhibition at 78.1 µg/mL [11, 23] was 18 mm, the zone of inhibition at 156.3 µg/mL [11, 24] was 23 mm and the zone of inhibition at 312.5 µg/mL [11, 25] was 25 mm. For the same compound, the zone of inhibition at 625 µg/mL [11, 26] was 27 mm, the zone of inhibition at 1250 µg/mL [11, 27] was 28 mm and the zone of inhibition at 2500 µg/mL [11, 28] was 30 mm. It also gave a zone of inhibition at 5000 µg/mL [11, 29] of 32 mm, a zone of inhibition at 10000 µg/mL [11, 30] of 34 mm and an MIC [11, 31] of 4.88 µg/mL (≈ 13 µM). The Inhibition zones diameter ([12]; B. mycoides, 200 μL of 10 mg/mL in DMSO in 15 mm holes, overnight 37 °C) was 37 ± 0.23 mm, the zone of inhibition at 10000 µg/mL ([12]; Bacillus mycoides, read-out: Inhibition zones diameter) was 37 mm and the “KRAS gene expression level” value [13] was “significant reduction”. For the same compound, the mortality at 100 µg/mL ([14]; 100 μg/mL) was 100%, the IC50 ([14]; MTT) was 57.2 ± 0.39 µM and the Inhibition zones diameter ([15]; C. albicans, 200 μL of 10 mg/mL in DMSO in 15 mm holes, overnight 37 °C) was 38 ± 0.67 mm. The zone of inhibition at 10000 µg/mL ([15]; Candida albicans, read-out: Inhibition zones diameter) was 38 mm, the mortality at 100 µg/mL ([16]; 100 μg/mL) was 100% and the IC50 ([16]; MTT) was 74 ± 0.29 µM. The mortality at 100 µg/mL [17] was 27.5 ± 0.64% and the zone of inhibition at 10000 µg/mL [18] was 29 ± 0.44 mm.
